Results taken from PMC7229842, “Molecular basis of the multifaceted functions of human leucyl-tRNA synthetase in protein synthesis and beyond” (Nucleic Acids Research, 2020).
One block for each molecule: values may come before it.

How the values were obtained:
[1] = biological target: T1, Human cytosolic leucyl-tRNA synthetase (hcLRS) (Homo sapiens, UniProt Q9P2J5); test: X-ray co-crystal structure at […] Å (as AN6426-AMP); aminoacylation inhibition IC50; format: biochemical
T1 construct: gene LARS1
Target sequence in this assay (Q9P2J5 whole entry): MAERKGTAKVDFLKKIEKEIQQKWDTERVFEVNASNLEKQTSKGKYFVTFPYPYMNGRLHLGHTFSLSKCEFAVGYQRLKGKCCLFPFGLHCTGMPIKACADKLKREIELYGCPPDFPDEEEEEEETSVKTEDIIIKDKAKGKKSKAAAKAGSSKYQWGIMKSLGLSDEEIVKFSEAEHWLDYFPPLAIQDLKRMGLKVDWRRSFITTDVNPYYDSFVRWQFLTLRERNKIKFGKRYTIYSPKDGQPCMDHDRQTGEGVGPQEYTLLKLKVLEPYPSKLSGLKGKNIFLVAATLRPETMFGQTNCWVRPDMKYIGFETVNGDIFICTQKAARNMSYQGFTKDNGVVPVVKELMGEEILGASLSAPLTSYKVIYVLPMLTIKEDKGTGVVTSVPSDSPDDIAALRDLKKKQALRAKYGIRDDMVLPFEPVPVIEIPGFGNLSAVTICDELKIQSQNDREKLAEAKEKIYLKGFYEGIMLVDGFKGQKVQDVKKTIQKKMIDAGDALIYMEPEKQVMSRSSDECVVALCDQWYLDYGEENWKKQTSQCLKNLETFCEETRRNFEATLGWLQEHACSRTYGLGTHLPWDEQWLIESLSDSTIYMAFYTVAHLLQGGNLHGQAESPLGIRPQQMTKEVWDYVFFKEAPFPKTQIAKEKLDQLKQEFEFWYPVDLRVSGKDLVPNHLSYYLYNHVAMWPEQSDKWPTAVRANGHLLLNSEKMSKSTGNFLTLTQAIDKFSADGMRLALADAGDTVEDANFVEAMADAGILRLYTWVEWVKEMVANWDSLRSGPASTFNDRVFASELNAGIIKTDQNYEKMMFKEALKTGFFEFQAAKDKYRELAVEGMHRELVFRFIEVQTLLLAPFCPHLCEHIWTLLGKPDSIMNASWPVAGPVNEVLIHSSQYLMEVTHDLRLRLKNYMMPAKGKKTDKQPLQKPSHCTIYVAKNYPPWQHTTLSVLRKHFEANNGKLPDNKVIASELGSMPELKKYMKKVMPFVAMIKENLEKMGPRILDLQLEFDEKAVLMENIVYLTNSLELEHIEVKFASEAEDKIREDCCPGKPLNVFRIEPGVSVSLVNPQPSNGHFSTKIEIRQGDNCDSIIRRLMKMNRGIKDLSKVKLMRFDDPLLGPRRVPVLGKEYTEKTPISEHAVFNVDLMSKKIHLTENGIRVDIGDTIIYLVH

[2] = biological target: T1, Human cytosolic leucyl-tRNA synthetase (hcLRS); test: X-ray co-crystal structure, […] Å; format: binding
Target sequence in this assay (Q9P2J5 1-1070): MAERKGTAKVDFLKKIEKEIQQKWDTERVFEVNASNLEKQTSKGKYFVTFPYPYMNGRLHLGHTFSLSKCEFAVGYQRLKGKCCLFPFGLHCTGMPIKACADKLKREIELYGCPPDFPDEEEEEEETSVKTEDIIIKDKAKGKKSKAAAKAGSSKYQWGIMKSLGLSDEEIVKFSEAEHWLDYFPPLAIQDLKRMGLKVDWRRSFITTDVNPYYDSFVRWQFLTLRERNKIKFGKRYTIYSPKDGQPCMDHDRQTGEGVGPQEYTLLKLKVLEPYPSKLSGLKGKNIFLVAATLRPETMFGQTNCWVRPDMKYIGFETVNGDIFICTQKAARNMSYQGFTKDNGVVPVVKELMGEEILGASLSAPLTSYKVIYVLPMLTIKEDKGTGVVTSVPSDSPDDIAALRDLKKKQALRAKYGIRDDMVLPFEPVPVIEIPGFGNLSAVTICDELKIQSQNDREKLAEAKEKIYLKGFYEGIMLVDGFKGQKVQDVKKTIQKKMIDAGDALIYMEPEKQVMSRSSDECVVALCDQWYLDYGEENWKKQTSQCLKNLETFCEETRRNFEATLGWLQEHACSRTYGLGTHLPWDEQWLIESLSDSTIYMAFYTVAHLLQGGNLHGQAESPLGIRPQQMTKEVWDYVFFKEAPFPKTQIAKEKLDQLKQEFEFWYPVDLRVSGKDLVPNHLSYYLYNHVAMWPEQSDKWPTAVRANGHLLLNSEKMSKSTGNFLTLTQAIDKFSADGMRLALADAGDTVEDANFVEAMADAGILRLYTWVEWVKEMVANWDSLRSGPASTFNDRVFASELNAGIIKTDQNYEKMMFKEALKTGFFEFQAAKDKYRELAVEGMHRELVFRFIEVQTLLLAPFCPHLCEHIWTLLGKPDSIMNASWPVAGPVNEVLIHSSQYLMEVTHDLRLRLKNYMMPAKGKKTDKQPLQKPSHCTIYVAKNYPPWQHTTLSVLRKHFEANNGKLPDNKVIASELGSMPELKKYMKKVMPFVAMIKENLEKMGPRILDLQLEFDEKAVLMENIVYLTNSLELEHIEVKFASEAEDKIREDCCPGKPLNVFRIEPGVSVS

[3] = biological target: T1, Human cytosolic leucyl-tRNA synthetase (hcLRS); test: aminoacylation assay with [3H]-Leu and tRNA^Leu(CAG), purified hcLRS; format: biochemical
Target sequence in this assay (Q9P2J5 whole entry): as the sequence (Q9P2J5 whole entry) above

IC50 [1]: 7.7 µM
Compound: CCOc1ccc(Cl)c2c1B(O)OC2CN (stereo not drawn) [AN6426]

Compound: CC(C)C[C@H](N)C(=O)NS(=O)(=O)OC[C@H]1O[C@@H](n2cnc3c(N)ncnc32)[C@H](O)[C@@H]1O [LeuAMS]
X-ray co-crystal structure, 2.5 Å [2]: LeuAMS, a stable analog of LeuAMP, was bound in the aminoacylation active site in our structure

IC50 [3]: 14.8 µM
Compound: OB1OCc2cc(F)ccc21 [tavaborole]
